Results published in US20240424012A1, “COMBINATIONS AND USES THEREOF” (Incyte Corporation, priority 2011, published 2024).
Values joined by “and” are separate entries in the source; they are usually repeats but may differ in a detail not shown here. Equal entries are not always repeated.

T1: Human CD19 (human, UniProt P15391 20-556)
T1 sequence: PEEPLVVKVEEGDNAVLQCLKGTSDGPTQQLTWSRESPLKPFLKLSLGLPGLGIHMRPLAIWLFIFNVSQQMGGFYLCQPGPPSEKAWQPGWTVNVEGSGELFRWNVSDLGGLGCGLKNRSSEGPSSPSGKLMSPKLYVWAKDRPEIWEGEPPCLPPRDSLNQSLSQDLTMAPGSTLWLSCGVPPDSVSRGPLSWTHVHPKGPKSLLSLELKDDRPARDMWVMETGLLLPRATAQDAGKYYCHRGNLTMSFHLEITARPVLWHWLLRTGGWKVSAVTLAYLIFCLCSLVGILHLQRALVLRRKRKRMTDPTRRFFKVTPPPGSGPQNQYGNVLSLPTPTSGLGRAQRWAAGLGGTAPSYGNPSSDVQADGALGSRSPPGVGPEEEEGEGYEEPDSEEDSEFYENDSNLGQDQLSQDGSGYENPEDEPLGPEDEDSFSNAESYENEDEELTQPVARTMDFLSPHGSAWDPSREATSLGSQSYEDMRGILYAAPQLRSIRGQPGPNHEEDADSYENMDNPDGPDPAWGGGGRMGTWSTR

B1: MOR208 (antibody, human IgG1, kappa, V domains shown)
VH: EVQLVESGGGLVKPGGSLKLSCAASGYTFTSYVMHWVRQAPGKGLEWIGYINPYNDGTKYNEKFQGRVTISSDKSISTAYMELSSLRSEDTAMYYCARGTYYYGTRVFDYWGQGTLVTVSS
VL: DIVMTQSPATLSLSPGERATLSCRSSKSLQNVNGNTYLYWFQQKPGQSPQLLIYRMSNLNSGVPDRFSGSGSGTEFTLTISSLEPEDFAVYYCMQHLEYPITFGAGTKLEIKR
B2: MOR208: anti-CD19 antibody; variable domains in FIG. 3, Fc regions in FIG. 4 (antibody)
heavy: EVQLVESGGGLVKPGGSLKLSCAASGYTFTSYVMHWVRQAPGKGLEWIGYINPYNDGTKYNEKFQGRVTISSDKSISTAYMELSSLRSEDTAMYYCARGTYYYGTRVFDYWGQGTLVTVSSASTKGPSVFPLAPSSKSTSGGTAALGCLVKDYFPEPVTVSWNSGALTSGVHTFPAVLQSSGLYSLSSWTVPSSSLGTQTYICNVNHKPSNTKVDKKVEPKSCDKTHTCPPCPAPELLGGPDVFLFPPKPKDTLMISRTPEVTCVVVDVSHEDPEVQFNWYVDGVEVHNAKTKPREEQFNSTFRVVSVLTVVHQDWLNGKEYKCKVSNKALPAPEEKTISKTKGQPREPQVYTLPPSREEMTKNQVSLTCLVKGFYPSDIAVEWESNGQPENNYKTTPPMLDSDGSFFLYSKLTVDKSRWQQGNVFSCSVMHEALHNHYTQKSLSLSPGK
light: DIVMTQSPATLSLSPGERATLSCRSSKSLQNVNGNTYLYWFQQKPGQSPQLLIYRMSNLNSGVPDRFSGSGSGTEFTLTISSLEPEDFAVYYCMQHLEYPITFGAGTKLEIKRTVAAPSVFIFPPSDEQLKSGTASVVCLLNNFYPREAKVQWKVDNALQSGNSQESVTEQDSKDSTYSLSSTLTLSKADYEKHKVYACEVTHQGLSSPVTKSFNRGEC

Assays:
[1] = tested on: MEC-1 cells; experiment: ADCC / cytotoxicity assay: killing of MEC-1 cells by MOR208 and fludarabine alone and in combination; type: cell-based, human; conditions: for normalized specific killing: background subtracted, combination set to 1, Fludarabine 18 μg/ml, MOR208 66 pM; for % dead cells: raw data, MOR208 66 pm, FLU 18 μg/ml, 72 h pre-incubation, E:T 30:1, 4 h
[2] = tested on: RAMOS human Burkitt's lymphoma cells; experiment: Subcutaneously (SC)-implanted human Ramos Burkitt's B-cell lymphoma tumor growth model; type: in vivo, SCID mice; conditions: for Increased time to 4000 mg [%] / Reduced tumor growth at study Day 38 (%): control 0; for Tumor Volume at study day 38, Average: vehicle average 4014
[3] = tested on: RAMOS human lymphoma cells; type: in vivo, SCID mice; conditions: MOR208 3 mg/kg i.v. twice weekly for 3 weeks; FLU 125 mg/kg i.p. once daily Day 0-5; combination of both; vehicle 18.5
[4] = target: T1, Human CD19; experiment: cell-based or functional assay
[5] = Experiment 1 (PBMC donor 1), control RefMab33
[6] = Experiment 2 (PBMC donor 2), control RefMab33
[7] = Experiment 3 (PBMC donor 3), control PBMCs alone
[8] = MOR208 10 mg/kg, FLU 125 mg/kg, combination of MOR208 and FLU 125
[9] = MOR208 10 mg/kg, Fludarabine 125 mg/kg IP Q1Dx5, combination MOR208/FLU 125
[10] = MOR208 10 mg/kg, Fludarabine 125 mg/kg, MOR208 + FLU 125 combination

Row | Molecule | normalized specific killing ([1]; Average of Experiments 1-3) | % dead cells [1, 5] [%] | normalized specific killing ([1]; Experiment 1) | % dead cells [1, 6] [%] | normalized specific killing ([1]; Experiment 2) | % dead cells [1, 7] [%] | normalized specific killing ([1]; Experiment 3) | Increased time to 4000 mg [%] [2, 8] [%] | Reduced tumor growth at study Day 38 (%) [2, 8] [%] | Tumor Volume at study day 38, Average [2, 9] [mm^3] | Increased time to 4000 mg [%], normalized to Fractional Product combination = 1 [2, 10] | Reduced tumor growth at study Day 38 (%), normalized to Fractional Product combination = 1 [2, 10] | Median Survival Time [3] [days] | also measured
1 | Fludarabine [reference compound] | 0.7 | 36.39 | 0.6 | 38.48 | 0.7 | 57.27 | 0.8 | 22.37 | 48.3 | 2073 | 0.62 | 0.75 | 22 | EC50 (MEC-1 cell killing) ([1]; FLU, test concentration stated to be near or at the EC50): ~18 µg/mL; Increased time to 4000 mg [%] ([2]; FLU 250 mg/kg): 30.19%; Reduced tumor growth at study Day 38 (%) ([2]; FLU 250 mg/kg): 64.8%; Increased time to 4000 mg [%], normalized to Fractional Product combination = 1 ([2]; Fludarabine 250 mg/kg): 0.8; Reduced tumor growth at study Day 38 (%), normalized to Fractional Product combination = 1 ([2]; Fludarabine 250 mg/kg): 0.9; Tumor Volume at study day 38, Average ([2]; Fludarabine 250 mg/kg IP Q1Dx5): 1413 mm^3
2 | B1 |  |  |  |  |  |  |  |  |  |  |  |  |  | EC50 of MEC-1 cell killing (ADCC) [4]: ~0.066 nM
3 | B2 | 0.5 | 35.2 | 0.6 | 29.8 | 0.4 | 47.01 | 0.5 | 17.52 | 38.5 | 2468 | 0.48 | 0.57 | 23.5 | Tumor Volume at study day 38 ([2]; single values (Group 1-8), MOR208 10 mg/kg, Fludarabine 125 mg/kg IP Q1Dx5, combination MOR208/FLU 125): 1764 mm^3 and 1862 mm^3 and 3402 mm^3 and 2560 mm^3 and 2816 mm^3 and 2138 mm^3 and 2025 mm^3 and 3179 mm^3
